From a melting point compilation (Tetko et al.)

SMILES	melting point [°C]
COC(=O)c1nccnc1N	171
O=C(O)C1C2CC3(OCCO3)C1CC2Cl (stereo unspecified)	164 to 166
Cc1sc2ccccc2c1CC1=NCCN1	156
NC(=NO)c1ccccc1	75 to 77
Cc1cc(C)n(C)n1	35.5
FC(F)(F)c1cc(Cl)c2cc(CBr)ccc2n1	119 to 123
O=C(COc1ncn(-c2ccc(Cl)cc2)n1)NNC(=S)NCc1ccccc1	133 to 135
CCOC(=O)c1cnn(-c2ccc(F)cc2)c1N	153 to 154
CCCC(=O)C(=O)O	6.5
C=CCN1C(=O)CSC1=S	43 to 46
c1ccc(-c2nc3ccccc3nc2-c2cccc3ccccc23)cc1	138
O=C(CCC(O)c1ccccc1)c1ccccc1 (stereo unspecified)	95
O=C(Oc1c(F)c(F)c(F)c(F)c1F)c1ccc(OC2CCOCC2)cc1	111 to 114
N#C/C(=N\Nc1cccc([N+](=O)[O-])c1)c1nc2ccccc2[nH]1	306 to 308
CCCCCOc1ccc(C(=O)O)cc1	123 to 127
BrCc1cccc2cccnc12	81 to 82
N#Cc1ccccc1C#N	140
CC1(C)CC(=O)C(Cl)C(=O)C1	163
Nc1cc(Cl)c(Cl)cc1[N+](=O)[O-]	181
Cc1ccc(-c2cc[nH]n2)cc1	82 to 86
Cn1c(=O)c(C2=NNC(=O)C2=C2c3ccccc3-c3ccccc32)c(O)c2ccccc21	295
Cc1c(C2(c3cc(C(C)C)c(O)c(CN(CC(=O)O)CC(=O)O)c3C)OC(=O)c3ccccc32)cc(C(C)C)c(O)c1CN(CC(=O)O)CC(=O)O	191

SMILES	melting point [°C]
OCc1ccc(-c2ccco2)s1	56 to 57
O=C1OC(=O)C2=C1CC1=C(CC=CC1)C2	204
FC(F)OCC(F)(F)C(F)(F)F	-107
O/N=C1/CC(c2ccccc2)Cc2ccncc21 (stereo unspecified)	227
CC12CCC(=O)C=C1CCC1C2CCC2(C)C(O)CCC12 (stereo unspecified)	153
O=C1NC(=O)C(=NNc2ccccc2)C(=O)N1	309 to 310
Cc1c(C(=O)O)cc(-c2ccccc2)n1CCCN1CCOCC1	172 to 177
CC(=O)OC1CCC2(C)C(=CC(=O)C3C4CCC(=O)C4(C)CCC32)C1 (stereo unspecified)	182
CC(=O)c1cc(C)cc([N+](=O)[O-])c1O	135
Nc1nsc(-c2ccc(Cl)cc2)n1	201 to 202
N#CC1(c2ccc(Cl)cc2)CCCCC1	88 to 92
Cc1cc(C)c(CC(=O)c2oc3ccccc3c2NC(=O)c2ccccc2)c(C)c1	198 to 199
O=C(O)Cc1ccc(Cl)c(Cl)c1	90
CSc1ccc(-n2c(-c3ccccc3)cc(C(=O)O)c2C)cc1	202 to 203
O=C(CBr)c1ccc(-c2ccccn2)s1	123 to 126
COc1ccc(C(=O)Oc2ccc(/C=C/C(=O)c3ccccc3)cc2)cc1	156
Nc1ccc(-c2ccc(-c3ccc(N)cc3)cc2)cc1	247
CC(=O)OC1CC2C(CCC3(C)C(C(C)CCCC(C)C)CCC23)C2(C)CCC(=O)C=C12 (stereo unspecified)	101 to 102
NC(=O)c1ccc(F)c(F)c1	134
O=c1nc2ccccc2nc(C(F)(F)F)c1NNc1ccc2ccccc2c1	151
C[C@@H](O)c1ccncc1	68 to 70
Cc1ccncc1CNC(=O)c1ccccc1	112

SMILES	melting point [°C]
CCOC(=O)C=Cc1ccc(O)c(OC)c1	57 to 59
O=C1CCCc2occc21	60.5 to 61.5
Fc1cc2nc(S)[nH]c2cc1Cl	298 to 301
C#Cc1ccc(C)cc1	21
c1ccc(CC(=NNc2ccccc2)/C(Cc2ccccc2)=N\Nc2ccccc2)cc1	181
CCCC(=O)OC	-84.5
Cn1c(C(F)(F)F)n[nH]c1=S	116 to 118
O=Cc1cc(Cl)cc(Cl)c1[N+](=O)[O-]	91
NC(=O)NNc1ccccc1	174 to 176
CC(=O)CCc1ccc2c(c1)N(C(=O)c1ccccc1)C(C)CC2 (stereo unspecified)	74
COC(=O)c1cc(Oc2ccc(Cl)cc2Cl)ccc1[N+](=O)[O-]	87
O=Cc1cccc(CBr)c1	49 to 51
NC1CCC(CC2CCC(N)CC2)CC1 (stereo unspecified)	64.7
CC(=O)Oc1ccc(N=C2C=CC(=O)C=C2)cc1	111 to 116
OCCCC1CCCCC1	-60
COCC(CCC(=O)OC)N1CC=CC1 (stereo unspecified)	144 to 146
O=C(O)Cc1ccc([N+](=O)[O-])cc1[N+](=O)[O-]	180
FC(F)(F)c1ccc2cc[nH]c2c1	103
CCCCCNc1ccc(NCCCCC)c2c1C(=O)c1ccccc1C2=O	210
CN1CSCSC1	65
Oc1cccc(Cl)c1O	48.5
O=S(=O)(Cl)c1ccc(-c2ccc(F)cc2)cc1	82 to 84

SMILES	melting point [°C]
CCOC(=O)Cc1csc(=S)[nH]1	136 to 144
O=C(O)C12CC3CC(CC(O)(C3)C1)C2	205
COCCOC1=C(N2CC2)C(=O)C(OCCOC)=C(N2CC2)C1=O	80
C=CC(=O)NC(O)C(=O)O (stereo unspecified)	123 to 127
Nc1cccc(S(=O)(=O)N2CCOCC2)c1	132 to 135
O=C1C2CCCC1CCC2	153 to 157
COC(=O)C1=C(C)NC(C)=C(C(=O)OC)C1c1ccccc1	198
CCC(C)(CC)OC(N)=O	56
COc1c(OC)c(OC(C)=O)c2cc(F)ccc2c1OC(C)=O	102
CCC(C(=O)O)C1(O)CCC(c2ccccc2)CC1 (stereo unspecified)	157
O=c1cc(C(F)(F)F)nc2scc(-c3ccc(Br)cc3)n12	171
OCC(CO)(CO)COCC(CO)(CO)COCC(CO)(CO)CO	249
CC(C)(C)NC[C@H](O)CO	85 to 89
CCc1cccc(C(C)=O)c1	-20
CC(C)c1cccc(O)c1	26
C/C=C/C1Nn2c(nnc2-c2cccc([N+](=O)[O-])c2)S1 (stereo unspecified)	222 to 224
CC(C)(C(=O)O)C(CC(=O)O)c1ccccc1 (stereo unspecified)	171
N#CC(c1ccc(O)cc1)N1CCOCC1 (stereo unspecified)	148 to 150
CC1CCC(C(C)C)C(OC(=O)/C(=C/c2ccccc2)Cc2ccccc2)C1 (stereo unspecified)	64 to 65
COc1ccc2c(c1)c(CC(=O)OCC(=O)O)c(C)n2C(=O)c1ccc(Cl)cc1	150
COc1ccc(C=C2C(=O)NN=C2c2c(O)c3ccccc3n(C)c2=O)cc1	250
CCOC(=O)NC(N)=O	196

SMILES	melting point [°C]
COc1ccc(C(C)=O)cc1O	89.5
NCCOCCO	-11
COc1cc2c(cc1OC)C(c1ccccc1[N+](=O)[O-])N(C(C)=O)CC2 (stereo unspecified)	132 to 134
O=C(O)CC=Cc1ccccc1	87
O=C(O)C1CC2CC1CCC2O (stereo unspecified)	160 to 169
O=C(O)c1cn(C2CC2)c2cc(Cl)c(F)cc2c1=O	239 to 244
CCN(CC)c1nc(Cl)nc(N(CC)CC)n1	27
CCCc1c(C(=O)O)cnn1-c1ccccc1	107 to 110
COCC(C)c1c(O)c2c(c(OC)c1OC)C1(C)CCCC(C)(C)C1C(=O)C2=O (stereo unspecified)	90 to 92
NC(=O)c1cccc(C(N)=O)c1	280
COc1ccc(C(=O)c2noc(-c3ccc(Br)cc3)c2S(=O)(=O)c2ccccc2)cc1	150
O=C(O)Cc1ccccc1Oc1ccc(Cl)cc1Cl	112
O=C(C(=O)c1ccco1)c1ccco1	164
N#Cc1c(F)cccc1Sc1ccc(Cl)cc1	70
CCCCOC(=O)C1=C(C)NC(=O)NC1c1ccc2c(c1)OCO2 (stereo unspecified)	143
Nc1n[nH]c(N)c1Cc1ccc(Cl)cc1	165 to 167
CC(CCC(O)(Cl)Cl)C1CCC2C3C(O)CC4CC(O)CCC4(C)C3CC(O)C12C (stereo unspecified)	162 to 170
c1cc(N2CCNCC2)ccn1	142 to 144
C=CCOC(=O)Nc1cc(O)cc(C(=O)O)c1	194 to 197
O=Cc1ccc(-c2ccccn2)cc1	51 to 53
CC(=O)NC(Cc1c[nH]c2ccccc12)C(N)=O (stereo unspecified)	195
CCCCCCCCCCCCCC(=O)OC(C)C	3

SMILES	melting point [°C]
CCCCSc1sc(C(=O)OCC)c2c1C(=O)CCC2	70 to 73
CC(=O)c1sccc1Br	43
Cc1cc(C(C)(C)C)cc(C)c1I	56
NC(=O)c1cccnc1Oc1ccccc1	162 to 163
Cn1c(/C(C#N)=N/Nc2c(Cl)cc(Cl)cc2Cl)nc2ccccc21	168
CC(O)C1(O)CC2C3CCC4(C)CC(O)CCC4(C)C3CCC2(C)C1 (stereo unspecified)	220 to 221
COc1cc2c(cc1O)CCNC2	222
CCC12CC3CC(C1)CC(C(=O)O)(C3)C2	94 to 96
CC(=O)Nc1ccccc1-c1cc2ccccc2[nH]1	151 to 152
COc1cc(CO)cc(Cl)c1O	117
CC1CCc2cc(F)cc3c(=O)c(C(=O)O)cn1c23 (stereo unspecified)	253
BrCc1sc(-c2ccccc2)nc1-c1ccccc1	112 to 114
CC(=O)Oc1cccc2cccnc12	55
CSC[C@H](N)C(=O)O	240
O=C(O)c1cncnc1	259 to 261
BrCc1c(CBr)c(CBr)c(CBr)c(CBr)c1CBr	292
OC(CCl)c1ccc(Cl)cc1Cl (stereo unspecified)	48 to 52
BrCc1ccccc1Br	31
CCOc1cccc(NC(C)=O)c1	97
CC(C)(C)c1ccc(N)c(N)c1	98 to 100
O=C(/C(=N/Nc1ccc(Br)cc1)S(=O)(=O)c1ccccc1)c1cccs1	158
